{"source": "patent US20120245505A1", "about": "“INTRACAMERAL DEVICES FOR SUSTAINED DELIVERY” (priority 2009, published 2012)", "key": {"[1]": {"test": "Release of NaF from implanted intracameral device, HRA imaging", "assay_type": "in vivo, New Zealand white (NZW) rabbit", "conditions": "rabbit eye", "method": "FIGS. 11A-D illustrate a series of Heidelberg retina angiograph (HRA) images of diffusion from an implanted device. FIGS. 11A-D illustrate HRA images after 2 minutes, 5 minutes, 10 minutes and 20 minutes.\nA device in accordance with the present disclosure was loaded with sodium fluorescein (NaF) in a polymeric delivery implant. A New Zealand white (NZW) rabbit had this device implanted in the sub-Tenon's space with the inner port extending into the anterior chamber.\nFIG. 11 illustrates that in as little as 2 minutes after implantation, the NaF had begun to disperse into the anterior chamber. By 20 minutes, the NaF had substantially dispersed into most of the anterior chamber."}, "iris": {"system": "iris", "conditions": "topical latanoprost (XALATAN); cited from earlier work"}, "[2]": {"system": "age-related macular degeneration", "test": "Treatment of macular degeneration with bimatoprost-coated intracameral implant", "assay_type": "in vivo, human", "conditions": "person, end of 7-year follow up", "from_the_text": "A person has age-related macular degeneration and cataracts in both eyes. […] At the end of a 7-year follow up period the patient can have maintained vision in the both eyes of at least 20/32"}, "glaucoma": {"system": "glaucoma", "test": "Treatment of glaucoma with bimatoprost-coated intracameral implant", "assay_type": "in vivo, human", "conditions": "person, intracameral implant coated with sustained release formulation, after 2 weeks", "from_the_text": "They have previously received topical therapy, but to no avail. Their vision is worsening as time progresses. […] After 2 weeks, the IOP is reduced."}}, "data": [{"smiles": "O=C([O-])c1ccccc1-c1c2ccc(=O)cc-2oc2cc([O-])ccc12.[Na+].[Na+]", "note": "[NaF, sodium fluorescein]", "values": [{"measurement": "time after implantation at which NaF had begun to disperse into the anterior chamber", "setting": "[1]; FIG. 11, HRA images", "result": "≤ 2", "unit": "min"}, {"measurement": "time by which NaF had substantially dispersed into most of the anterior chamber", "setting": "[1]; FIG. 11, HRA images", "result": "≤ 20", "unit": "min"}, {"measurement": "release of NaF into the anterior chamber (HRA imaging)", "setting": "[1]; device with polymeric delivery implant in sub-Tenon's space, inner port extending into anterior chamber", "result": "sustained-release of NaF into the anterior chamber"}]}, {"smiles": "CC(C)OC(=O)CCC/C=C\\C[C@@H]1[C@@H](CC[C@@H](O)CCc2ccccc2)[C@H](O)C[C@@H]1O", "note": "[latanoprost]", "values": [{"measurement": "increase in brown pigment in the iris", "setting": "iris", "result": "5-15 % of human eyes"}]}, {"smiles": "CCNC(=O)CCC/C=C\\C[C@@H]1[C@@H](/C=C/[C@@H](O)CCc2ccccc2)[C@H](O)C[C@@H]1O", "note": "[bimatoprost]", "values": [{"measurement": "maintained vision in both eyes", "setting": "[2]", "result": "at least 20/32"}, {"measurement": "IOP", "setting": "glaucoma", "result": "reduced"}]}]}
